Experimental data published in US8163909B2, “Substituted hydroxyethyl amine compounds as beta-secretase modulators and methods of use” (Amgen Inc., priority 2007, dated 2012).
Where two headings read alike, the source gives them in different places.

How the values were obtained:
[1] = Microsomal stability assay, human liver microsomes; settings: human liver microsomes;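 also: pooled human liver microsomes at 0.25 mg/mL with 1 µM compound and NADPH at 37 °C, pH 7.4, for 30 min, unchanged parent quantified by LC-MS/MS against the 0 min sample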
CYP3A4 (CYP3A) = CYP3A4 (CYP3A) (Homo sapiens, UniProt P08684); experiment: in vitro; settings: microsomes, pH 7.4;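 also: inhibition of CYP3A-mediated 1-hydroxymidazolam formation after 10 min incubation with NADPH, quantified by HPLC MS relative to metabolite produced without test compound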
Sequence of CYP3A4 (CYP3A) (P08684 2-503): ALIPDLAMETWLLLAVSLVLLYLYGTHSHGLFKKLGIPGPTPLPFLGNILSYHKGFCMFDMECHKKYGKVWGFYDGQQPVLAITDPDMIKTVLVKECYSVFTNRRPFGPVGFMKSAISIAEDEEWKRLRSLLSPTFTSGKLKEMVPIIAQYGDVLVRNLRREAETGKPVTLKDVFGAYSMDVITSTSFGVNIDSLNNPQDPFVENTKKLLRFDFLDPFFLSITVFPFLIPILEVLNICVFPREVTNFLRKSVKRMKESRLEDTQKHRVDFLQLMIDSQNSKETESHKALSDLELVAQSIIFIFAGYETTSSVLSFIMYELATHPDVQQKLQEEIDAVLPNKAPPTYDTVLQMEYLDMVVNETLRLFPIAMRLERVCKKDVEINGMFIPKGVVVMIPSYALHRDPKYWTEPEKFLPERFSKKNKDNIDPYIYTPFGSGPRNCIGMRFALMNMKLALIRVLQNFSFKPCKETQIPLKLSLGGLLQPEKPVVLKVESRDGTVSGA

[2] = target: Beta Secretase enzyme (BACE) (Homo sapiens, UniProt P56817); experiment: In vitro enzymatic BACE FRET (fluorescence resonance energy transfer) assay; format: biochemical;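 also: fluorescence read after 1 h with 50 nM quenched peptide substrate spanning the BACE cleavage site, in pH 4.2 acetate buffer containing 10% DMSO and nonionic detergent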
Sequence of Beta Secretase enzyme (BACE) (P56817 46-501): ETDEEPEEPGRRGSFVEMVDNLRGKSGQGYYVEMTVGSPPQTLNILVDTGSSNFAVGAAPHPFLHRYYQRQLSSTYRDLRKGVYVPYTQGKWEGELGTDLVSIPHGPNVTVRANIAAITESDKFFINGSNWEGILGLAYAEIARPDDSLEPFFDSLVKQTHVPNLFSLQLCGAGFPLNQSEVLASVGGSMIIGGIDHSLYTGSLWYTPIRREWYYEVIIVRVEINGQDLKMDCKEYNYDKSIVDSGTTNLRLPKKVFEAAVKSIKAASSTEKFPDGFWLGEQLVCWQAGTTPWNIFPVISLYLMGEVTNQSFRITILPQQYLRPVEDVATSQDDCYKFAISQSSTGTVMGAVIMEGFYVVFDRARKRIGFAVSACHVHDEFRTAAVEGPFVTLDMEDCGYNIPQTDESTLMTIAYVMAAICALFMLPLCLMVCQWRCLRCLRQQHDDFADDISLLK

[3] = Microsomal stability assay, rat liver microsomes; settings: rat liver microsomes;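 also: rat liver microsomes (0.25 mg/mL) with about 1 µM compound plus 1 mM NADPH, pH 7.4, 37 °C for 30 min, parent left measured by LC-MS/MS against 0 min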
[4] = test system: Aβ40 in conditioned medium of cells stably expressing Amyloid Precursor Protein (APP); experiment: In vitro BACE cell-based assay (Aβ40 in conditioned medium, sandwich ELISA); settings: Homo sapiens;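 also: compounds added as a dilution series, secreted peptide quantified by europium time-resolved fluorescence readout, potency fitted from percent of control versus compound concentration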
CYP2D6 = CYP2D6 (Homo sapiens, UniProt P10635); experiment: CYP2D6 inhibition assay (bufuralol, pooled human liver microsomes)
Sequence of CYP2D6 (P10635 whole entry): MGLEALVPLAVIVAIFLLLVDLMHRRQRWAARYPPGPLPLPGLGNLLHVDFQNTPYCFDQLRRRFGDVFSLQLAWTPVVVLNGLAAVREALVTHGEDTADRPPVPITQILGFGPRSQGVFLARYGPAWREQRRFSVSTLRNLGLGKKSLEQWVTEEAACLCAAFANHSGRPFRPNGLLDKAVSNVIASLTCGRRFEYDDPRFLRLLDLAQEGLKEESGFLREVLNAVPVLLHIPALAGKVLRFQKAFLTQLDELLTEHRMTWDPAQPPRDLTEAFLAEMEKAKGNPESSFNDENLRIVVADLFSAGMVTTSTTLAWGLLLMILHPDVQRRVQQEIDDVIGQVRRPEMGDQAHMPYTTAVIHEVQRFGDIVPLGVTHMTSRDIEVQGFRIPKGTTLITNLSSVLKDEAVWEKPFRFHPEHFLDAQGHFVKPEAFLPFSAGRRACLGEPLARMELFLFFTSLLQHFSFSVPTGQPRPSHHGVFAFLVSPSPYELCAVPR

[5] = read-out: BACE1 FRET assay (IC50)
[6] = HEK293, HEK cells, read-out: HEK cell assay (IC50)
[7] = BACE enzyme assay IC50, read-out: BACE1 FRET assay
[8] = HEK293, HEK cell-based assay IC50, read-out: HEK cell assay
[9] = 2D6 IC50 (uM), CYP2D6 inhibition

| Compound | HLM [1] [µL/min/mg] | IC50 (CYP3A4 (CYP3A)) [nM] | IC50 [2, 5] [nM] | RLM [3] [µL/min/mg] | IC50 [4, 6] [nM] | IC50 (CYP2D6; 2D6 IC50, CYP2D6 inhibition) [µM] | IC50 [2, 7] [nM] | IC50 [4, 8] [nM] | IC50 (CYP2D6; [9]) [µM] |
| --- | --- | --- | --- | --- | --- | --- | --- | --- | --- |
| CO[C@H](C)C(=O)N[C@@H](Cc1ccc2c(c1)OCO2)[C@H](O)CN[C@H]1CC2(CCC2)Oc2c1cc(CC(C)C)nc2Cl [compound 657, (2R)-N-((1S,2R)-1-(1,3-benzodioxol-5-ylmethyl)-3-(((4′S)-8′-chloro-6′-(2-methylpropyl)-3′,4′-dihydrospiro[cyclobutane-1,2′-pyrano[2,3-c]pyridin]-4′-yl)amino)-2-hydroxypropyl)-2-methoxypropanamide] | 96 | 160 | 30 | 178 | 524 | 5.3 |  |  |  |
| CC(=O)N[C@@H](Cc1cccc(-c2cncs2)c1)[C@H](O)CN[C@H]1CC2(CCC2)Oc2ncc(CC(C)(C)C)cc21 [compound 658, N-((1S,2R)-3-(((4′S)-6′-(2,2-dimethylpropyl)-3′,4′-dihydrospiro[cyclobutane-1,2′-pyrano[2,3-b]pyridin]-4′-yl)amino)-2-hydroxy-1-(3-(1,3-thiazol-5-yl)benzyl)propyl)acetamide] | 130 | 100 | 6 | 120 | 10 | 0.3 |  |  |  |
| CCOCC(=O)N[C@@H](Cc1cccc(F)c1)[C@H](O)CN[C@H]1CC2(CCC2)Oc2ncc(CC(C)(C)C)cc21 [compound 660] | 829 | 200 | 3 | 775 | 18 | 1.9 |  |  |  |
| COCC(=O)N[C@@H](Cc1ccc(F)cc1)[C@H](O)CN[C@H]1CC(C)(C)Oc2ncc(CC(C)(C)C)cc21 [compound 663] | 163 | 1700 | 13 | 133 | 21 | 10.5 |  |  |  |
| COCC(=O)N[C@@H](Cc1ccc2c(c1)OCO2)[C@H](O)CN[C@H]1CC2(CCC2)Oc2cnc(CC(C)C)cc21 [compound 664] | 193 | ≤ 30 | 118 | 276 | 192 | 2.3 |  |  |  |
| CO[C@H](C)C(=O)N[C@@H](Cc1ccc2c(c1)OCO2)[C@H](O)CN[C@H]1CC2(CCC2)Oc2nc3c(cc21)[C@H](C(C)C)CO3 [compound 665] | 61 | 200 | 927 | 126 | 249 | 4 |  |  |  |
| CO[C@H](C)C(=O)N[C@@H](Cc1ccc2c(c1)OCO2)[C@H](O)CN[C@H]1CC2(CCC2)Oc2cnc(CC(C)C)cc21 [compound 666] | 140 | ≤ 30 | 124 | 228 | 175 | 2.4 |  |  |  |
| COCC(=O)N[C@@H](Cc1cc(F)cc(F)c1)[C@H](O)CN[C@H]1CC2(CCC2)Oc2c1cc(CC(C)C)nc2Cl [compound 667] | 399 | 600 | 5 | 682 | 54 | 6.3 |  |  |  |
| COCC(=O)N[C@@H](Cc1cccc(F)c1)[C@H](O)CN[C@H]1CC2(CCC2)Oc2c(-c3ccncc3F)cc(CC(C)(C)C)cc21 [compound 668] | 118 | 100 | 4 | 197 | 18 | 2.9 |  |  |  |
| COCC(=O)N[C@@H](Cc1ccc2c(c1)OCO2)[C@H](O)CN[C@H]1CC2(CCC2)Oc2c1cc(CC(C)C)nc2-c1ccncc1 [compound 669] | 45 | ≤ 30 |  | 77 |  |  | 34 | 87 | 0.3 |
| CO[C@H](C)C(=O)N[C@@H](Cc1ccc2c(c1)OCO2)[C@H](O)CN[C@H]1CC2(CCC2)Oc2c1cc(CC(C)C)nc2-c1ccncc1 [compound 670] | 40 | ≤ 30 |  | 100 |  |  | 60 | 294 | 0.8 |
